Laboratory results reported in patent publication US20120231448A1, “LOW CELL TOXICITY […]” (priority 2011, published 2012).

Tests used:
Tobacco Calli cells = experiment: LD 50 hygromycin B concentration for sensitive cells; format: cell-based
Escherichia Coli = experiment: as above; format: cell-based
[1] = tested on: Tobacco Calli cells transformed with the Hygromycin B phosphotransferase gene; experiment: LD 50 for resistant cells; details: for LD 50 for different impurities for resistant cells: isolated impurities added to media
Fungi cell = experiment: LD 50 hygromycin B concentration for sensitive cells; format: cell-based
[2] = tested on: 293 cells transformed with the Hygromycin B phosphotransferase gene; experiment: LD 50 for resistant cells; details: resistant 293 cells; for LD 50 for different impurities for resistant cells: isolated impurities added to media
resistant cells = details: comparison between batches / impurities
293 cell = experiment: LD 50 hygromycin B concentration for sensitive cells; format: cell-based; details: sensitive 293 cell

Row | Molecule | LD 50 hygromycin B concentration for sensitive cells (Tobacco Calli cells) [µg/mL] | LD 50 hygromycin B concentration for sensitive cells (Escherichia Coli) [µg/mL] | LD 50 hygromycin B concentration for resistant cells ([1]; hygromycin B batches) [µg/mL] | LD 50 hygromycin B concentration for sensitive cells (Fungi cell) [µg/mL] | LD 50 hygromycin B concentration for resistant cells ([2]; hygromycin B batches) [µg/mL] | toxicity to resistant cells (in words) (resistant cells) | LD 50 hygromycin B concentration for sensitive cells (293 cell) [µg/mL] | LD 50 for different impurities for resistant cells [1] [µg/mL] | LD 50 for different impurities for resistant cells [2] [µg/mL]
1 | CN[C@H]1C[C@@H](N)[C@H](O)[C@@H](O[C@@H]2O[C@H](CO)[C@H](O)[C@@H]3OC4(O[C@H]23)O[C@H]([C@@H](N)CO)[C@H](O)[C@H](O)[C@H]4O)[C@@H]1O (some centres unmarked) [Batch T-94, hygromycin B] | 4.7 | 8.2 | 490 | 14.2 | 394 | lower toxicity to resistant cells | 8.5 | – | –
2 | Destomic acid [Impurity A] | – | – | – | – | – | – | – | 193 | 240
3 | NC1CC(N)C(O)C(OCC(O)C(O)C(O)C(O)CO)C1O (centres unmarked) [Impurity D] | – | – | – | – | – | – | – | 0.5 | 1.7
